According to PubChem BioAssay AID1996:
Values after ≈ are worked out from the molar mass of the structure shown.

Settings: buffer; pH 7.4; 200.0 µM

Question: For Clc1ccccc1CSc1nncn1-c1cccnc1, which solubility kinetic is on record?
Answer: > 45.4 µg/mL

Question: With O=[N+]([O-])c1ccccc1COc1ccc(Cl)c2cccnc12 as the compound, how does the solubility kinetic read?
Answer: < 0.3 µg/mL

Question: For CC(C)Oc1ccc(C(=O)NC2=NCCS2)cc1, which solubility kinetic is on record?
Answer: 23.1 µg/mL (≈ 87.4 µM)

Question: Which solubility kinetic does the source give for COC(=O)c1scc(C)c1NC(=O)c1ccccc1F here?
Answer: > 44 µg/mL

Question: With COc1ccccc1OCc1nc2ccccc2n1C as the compound, how does the solubility kinetic read?
Answer: 37.5 µg/mL (≈ 140 µM)

Question: For O=C(NCC1CCCCC1)c1cccnc1, which solubility kinetic is on record?
Answer: 31.1 µg/mL (≈ 142 µM)

Question: For Cc1c(C(=O)Oc2cccc3cccnc23)cccc1[N+](=O)[O-], which solubility kinetic is on record?
Answer: 7.9 µg/mL (≈ 25.6 µM)

Question: For CCOc1ccc(S(=O)(=O)N2CCCCC2)cc1NC(=O)c1cccnc1OCC, which solubility kinetic is on record?
Answer: 1.2 µg/mL (≈ 2.77 µM)

Question: Which solubility kinetic does the source give for CC(Oc1ccc(Cl)cc1)C(=O)NCC1CCCO1 (stereo not given) here?
Answer: 41.5 µg/mL (≈ 146 µM)

Question: Which solubility kinetic does the source give for CC(=O)NC(Cc1ccccc1)C(C)=O (stereo not given) here?
Answer: > 30.8 µg/mL

Question: Which solubility kinetic does the source give for CCOc1cc(/C=C2\C(=O)ON=C2c2ccccc2)ccc1OC here?
Answer: 46.1 µg/mL (≈ 143 µM)

Question: For CCOC(=O)C1=C(C)OC(N)=C(C#N)C1c1ccccc1 (stereo not given), which solubility kinetic is on record?
Answer: 37.1 µg/mL (≈ 130 µM)

Question: With C=CCNC(=S)N1CCc2c([nH]c3ccccc23)C1C (stereo not given) as the compound, how does the solubility kinetic read?
Answer: 27.7 µg/mL (≈ 97.1 µM)

Question: For COc1ccc(OC)c(Nc2ncnc3sccc23)c1, which solubility kinetic is on record?
Answer: 42.2 µg/mL (≈ 147 µM)

Question: For COc1ccc(N2C(=O)CSC2c2ccccc2F)c(OC)c1 (stereo not given), which solubility kinetic is on record?
Answer: 45.9 µg/mL (≈ 138 µM)

Question: With Nc1ccc(C(=O)OCC(=O)NC2CC2)cc1[N+](=O)[O-] as the compound, how does the solubility kinetic read?
Answer: > 41.9 µg/mL

Question: For O=[N+]([O-])c1ccc(CNc2cccc(Cl)c2)s1, which solubility kinetic is on record?
Answer: 6.3 µg/mL (≈ 23.4 µM)

Question: With CCCOc1ccc(/C=C/C(=O)N2CCOCC2)cc1 as the compound, how does the solubility kinetic read?
Answer: > 41.3 µg/mL

Question: For CCOc1ccc(CNCCN2CCCC2)cc1.O=C(O)C(=O)O, which solubility kinetic is on record?
Answer: 28.2 µg/mL

Question: For COc1ccc(NC(=O)CN2CCN(Cc3ccccc3)CC2)cc1, which solubility kinetic is on record?
Answer: > 50.9 µg/mL

Question: For COC(=O)c1c(C)[nH]c(C(=O)OCc2csc(CC(=O)Nc3ccccc3C)n2)c1C, which solubility kinetic is on record?
Answer: 7.4 µg/mL (≈ 16.8 µM)

Question: With COc1ccc(NC(=O)c2cccnc2SC)cc1OC as the compound, how does the solubility kinetic read?
Answer: 19.2 µg/mL (≈ 63.1 µM)

Question: Which solubility kinetic does the source give for Cc1cccc(NC(=O)N2CCC(NC(=O)C3CCCCC3)CC2)c1 here?
Answer: 1.6 µg/mL (≈ 4.66 µM)

Question: With NS(=O)(=O)c1ccc(CCNC(=O)c2ccc3c(c2)OCO3)cc1 as the compound, how does the solubility kinetic read?
Answer: > 52.3 µg/mL

Question: With O=C(COC(=O)c1cccc(Cl)c1)Nc1ccc2[nH]c(=O)[nH]c2c1 as the compound, how does the solubility kinetic read?
Answer: 0.8 µg/mL (≈ 2.31 µM)

Question: With COc1ccc(-c2cc(C(=O)N3CCCC3)no2)cc1OC as the compound, how does the solubility kinetic read?
Answer: 43.8 µg/mL (≈ 145 µM)

Question: With CCN(CC)C(=S)Oc1ccc(Cl)cc1Cl as the compound, how does the solubility kinetic read?
Answer: 0.9 µg/mL (≈ 3.24 µM)

Question: For Oc1ccccc1C=NCCCCCCN=Cc1ccccc1O, which solubility kinetic is on record?
Answer: 47.4 µg/mL (≈ 146 µM)

Question: Which solubility kinetic does the source give for C=C1c2cc(C)c(C)cc2NC(=O)N1c1ccccc1 here?
Answer: 24.4 µg/mL (≈ 92.3 µM)

Question: With CC(C)(C)SCCNS(=O)(=O)c1ccc(C#N)cc1 as the compound, how does the solubility kinetic read?
Answer: 18.1 µg/mL (≈ 60.7 µM)

Question: Which solubility kinetic does the source give for CCCCOc1ccc(N2CC(C(=O)NCc3ccco3)CC2=O)cc1 (stereo not given) here?
Answer: 12.6 µg/mL (≈ 35.4 µM)

Question: For CCCCN=CC1=C(O)CC(c2ccccc2)CC1=O (stereo not given), which solubility kinetic is on record?
Answer: 34.9 µg/mL (≈ 129 µM)

Question: Which solubility kinetic does the source give for CC(CCn1cccn1)NC(=O)CCc1nnc(C2CCCCC2)o1 (stereo not given) here?
Answer: > 51.8 µg/mL

Question: For S=C(NCCCn1ccnc1)Nc1cccc(Cl)c1, which solubility kinetic is on record?
Answer: > 44.2 µg/mL

Question: Which solubility kinetic does the source give for COc1cc2ccccc2cc1C(=O)Nc1ccccc1Cl here?
Answer: < 0.7 µg/mL

Question: With N#C/C(=C\c1ccncc1)C(=O)Nc1ccc(C(=O)O)cc1 as the compound, how does the solubility kinetic read?
Answer: > 44 µg/mL

Question: Which solubility kinetic does the source give for Cc1[nH]c2ccccc2c1C(=O)C(=O)N1CCC2(CC1)OCCO2 here?
Answer: > 49.3 µg/mL

Question: With C/C=C/C(=O)N(CC)c1ccccc1C as the compound, how does the solubility kinetic read?
Answer: 17.7 µg/mL (≈ 87.1 µM)

Question: For O=C(CSc1nnc(NC(=O)c2ccccc2F)s1)NC1CC1, which solubility kinetic is on record?
Answer: > 52.9 µg/mL

Question: For Fc1ccc(F)c(NC2=NCCCCC2)c1, which solubility kinetic is on record?
Answer: > 33.6 µg/mL

Question: With CC(C)CC(=O)N1CCN(Cc2ccc(Cl)cc2)CC1 as the compound, how does the solubility kinetic read?
Answer: 28.4 µg/mL (≈ 96.3 µM)

Question: Which solubility kinetic does the source give for COC(=O)c1cc(C(=O)Nc2nc3ccccc3[nH]2)cc([N+](=O)[O-])c1 here?
Answer: 1.1 µg/mL (≈ 3.23 µM)

Question: With CCc1cc(C(=O)N2CCCc3ccccc32)sc1C as the compound, how does the solubility kinetic read?
Answer: 9.7 µg/mL (≈ 34 µM)

Question: For COc1cc(C2NC(=O)NC(C)=C2C(C)=O)ccc1O (stereo not given), which solubility kinetic is on record?
Answer: > 41.4 µg/mL

Question: For O=C(Nc1ccc(Cl)cc1)c1cc(-c2cccs2)on1, which solubility kinetic is on record?
Answer: < 0.3 µg/mL

Question: With NC(N)=NCCCC(NC(=O)c1ccccc1)C(=O)Nc1ccc2ccccc2c1 (stereo not given) as the compound, how does the solubility kinetic read?
Answer: 52.2 µg/mL (≈ 129 µM)

Question: With CC(Oc1ccc(Br)cc1Br)C(=O)Nc1cccnc1 (stereo not given) as the compound, how does the solubility kinetic read?
Answer: 7.2 µg/mL (≈ 18 µM)

Question: Which solubility kinetic does the source give for CCCN(Cc1ccccc1)C(=S)Nc1ccc(F)cc1 here?
Answer: 39.2 µg/mL (≈ 130 µM)

Question: For CCOc1ccc(NC(=O)CN2C(=O)CSC(C)C2=O)cc1 (stereo not given), which solubility kinetic is on record?
Answer: > 48.4 µg/mL

Question: With CCC(CC)C(=O)c1c[nH]c(C(=O)NCc2ccccc2)c1 as the compound, how does the solubility kinetic read?
Answer: 2.2 µg/mL (≈ 7.37 µM)

Question: For Cc1ccc(S(=O)(=O)N2CCCCC2C)cc1[N+](=O)[O-] (stereo not given), which solubility kinetic is on record?
Answer: 24.2 µg/mL (≈ 81.1 µM)

Question: Which solubility kinetic does the source give for Cc1ccc(Nc2ncnc(N)n2)cc1 here?
Answer: 29.5 µg/mL (≈ 147 µM)

Question: Which solubility kinetic does the source give for COc1ccc2c(c1)c(C(C)=O)c(C)n2CCc1ccc(OC)c(OC)c1 here?
Answer: 50.8 µg/mL (≈ 138 µM)

Question: With CCN1C(=O)C(=Cc2ccc(N3CCOCC3)o2)C(=O)N(CC)C1=S as the compound, how does the solubility kinetic read?
Answer: 1.1 µg/mL (≈ 3.03 µM)

Question: For COCCNC(=O)COc1cccc2c1OC(C)(C)C2, which solubility kinetic is on record?
Answer: > 41.9 µg/mL

Question: Which solubility kinetic does the source give for CC1(c2ccccc2)NC(=O)N(CC#N)C1=O (stereo not given) here?
Answer: 34.3 µg/mL (≈ 150 µM)

Question: Which solubility kinetic does the source give for Clc1ccc(SCc2csc(N3CCOCC3)n2)cc1 here?
Answer: 10.2 µg/mL (≈ 31.2 µM)

Question: With COC(=O)c1cc(S(=O)(=O)N(C)Cc2ccco2)c[nH]1 as the compound, how does the solubility kinetic read?
Answer: > 44.7 µg/mL

Question: For COc1ccc(CNC(=O)C(NC(C)=O)C(C)C)cc1OC (stereo not given), which solubility kinetic is on record?
Answer: > 46.3 µg/mL

Question: For C=C(c1ccccc1Cl)[n+]1ccccc1.F[B-](F)(F)F, which solubility kinetic is on record?
Answer: > 45.5 µg/mL
